Source: patent US10363239B2, “Method for inhibiting growth of cancer cells” (Pain Therapeutics, Inc., priority 2013, dated 2019)
Where two headings read alike, the source gives them in different places.

How the values were obtained:
[1] = target: FLNA pentapeptide of SEQ ID NO: 1 (Bn-VAKGL) (Homo sapiens, UniProt P21333); assay: FITC-NLX-based FLNA screening assay (inhibition of FITC-naloxone binding to Bn-VAKGL on streptavidin plates); conditions: 10 nM FITC-NLX
[2] = system: mu opiate receptor (MOR); assay: MOR agonist activity using [35S]GTPγS binding assay in striatal membranes; format: biochemical; conditions: for MOR agonist activity ([35S]GTPγS binding), FLNA-Binding Compound as Agonist 1 μM + BFNA: 1 μM compound + 1 μM β-funaltrexamine
Summary of the method: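 Striatal membranes (200 μg) were preincubated 5 min at 30 °C in HEPES pH 7.5 with 100 mM NaCl, 1 mM MgCl2 and 0.5 nM [35S]GTPγS, then 5 min more with 0.1–10 μM compound. Gαo was immunoprecipitated and bound radioactivity counted by scintillation.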

[3] = read-out: Percent Binding Inhibition, FLNA-binding compound 0.01 μM
[4] = read-out: Percent Binding Inhibition, FLNA-binding compound 0.1 μM
[5] = read-out: Percent Binding Inhibition, FLNA-binding compound 1 μM
[6] = Series B, 0.1 μM compound, relative to DAMGO
[7] = Series B, 0.1 μM compound, [35S]GTPγS binding to Gαo, striatal membranes
[8] = Series B, 1 μM compound + 1 μM β-FNA
[9] = Series B, 1 μM compound + β-FNA, relative to DAMGO + BFNA
[10] = Series B, 1 μM compound, relative to DAMGO
[11] = Series B, 1 μM compound, [35S]GTPγS binding to Gαo, striatal membranes
[12] = FLNA-binding compound 0.01 μM, read-out: Percent Binding Inhibition
[13] = FLNA-binding compound 0.1 μM, read-out: Percent Binding Inhibition
[14] = FLNA-binding compound 1 μM, read-out: Percent Binding Inhibition
[15] = Series C-2, 0.1 μM compound, relative to DAMGO
[16] = Series C-2, 0.1 μM compound, [35S]GTPγS binding to Gαo, striatal membranes
[17] = Series C-2, 1 μM compound + 1 μM β-FNA
[18] = Series C-2, 1 μM compound + β-FNA, relative to DAMGO + BFNA
[19] = Series C-2, 1 μM compound, relative to DAMGO
[20] = Series C-2, 1 μM compound, [35S]GTPγS binding to Gαo, striatal membranes
[21] = Series C-1, 0.1 μM compound, relative to DAMGO
[22] = Series C-1, 0.1 μM compound, [35S]GTPγS binding to Gαo, striatal membranes
[23] = Series C-1, 1 μM compound + 1 μM β-FNA
[24] = Series C-1, 1 μM compound + β-FNA, relative to DAMGO + BFNA
[25] = Series C-1, 1 μM compound, relative to DAMGO
[26] = Series C-1, 1 μM compound, [35S]GTPγS binding to Gαo, striatal membranes
[27] = 0.1 μM compound relative to DAMGO
[28] = 1 μM compound + BFNA relative to DAMGO + BFNA
[29] = 1 μM compound relative to DAMGO

| SMILES | inhibition at 0.01 µM [1, 3] [%] | inhibition at 0.1 µM [1, 4] [%] | inhibition at 1 µM [1, 5] [%] | inhibition at 0.01 µM [1, 12] [%] | inhibition at 0.1 µM [1, 13] [%] | inhibition at 1 µM [1, 14] [%] | % DAMGO (0.1 μM) [2, 15] [%] | MOR agonist activity, percent [35S]GTPγS binding at the stated compound concentration [2, 16] [%] | MOR agonist activity, percent [35S]GTPγS binding at the stated compound concentration [2, 17] [%] | % DAMGO + BFNA [2, 18] [%] | % DAMGO (1 μM) [2, 19] [%] | MOR agonist activity, percent [35S]GTPγS binding at the stated compound concentration [2, 20] [%] | further results |
| --- | --- | --- | --- | --- | --- | --- | --- | --- | --- | --- | --- | --- | --- |
| COc1c2c(cc3c1C(CC(=O)Cc1ccc(Br)cc1)[N+](C)(C)CC3)OCO2 (stereo not drawn) [Compound B0011] | 40.9 | 50.3 | 55.8 | – | – | – | – | – | – | – | – | – | % DAMGO (0.1 μM) [2, 6]: 95.7%; MOR agonist activity, percent [35S]GTPγS binding at the stated compound concentration [2, 7]: 158.6%; MOR agonist activity, percent [35S]GTPγS binding at the stated compound concentration [2, 8]: 78.0%; % DAMGO + BFNA [2, 9]: 120.0%; % DAMGO (1 μM) [2, 10]: 78.7%; MOR agonist activity, percent [35S]GTPγS binding at the stated compound concentration [2, 11]: 212.6% |
| CCCCN1CCC2(CC1)OCCN2S(=O)(=O)c1ccc(OC)cc1 [Compound C0102M] | – | – | – | 52.3 | 53.1 | 56.6 | 78.6 | 131.8 | 150.4 | 316.6 | 122.4 | 272.0 | – |
| CN1CCC2(CC1)OCCN2S(=O)(=O)c1ccc(S(C)(=O)=O)cc1 [Compound C0106M] | 45.8 | 55.6 | 58.9 | – | – | – | 102.5 | 171.8 | 117.2 | 246.7 | 108.3 | 240.7 | – |
| CC(=O)c1ccc(S(=O)(=O)N2CCC3(CC2)NC(=O)CN3S(=O)(=O)c2ccc(C(C)=O)cc2)cc1 [Compound C0064] | 37.3 | 44.4 | 49.2 | – | – | – | – | – | – | – | – | – | % DAMGO (0.1 μM) [2, 21]: 124.2%; Concentration of FLNA-Binding Compound as Agonist 0.1 μM [2, 22]: 213.8%; Concentration of FLNA-Binding Compound as Agonist 1 μM + BFNA [2, 23]: 38.1%; % DAMGO + BFNA [2, 24]: 110.4%; % DAMGO (1 μM) [2, 25]: 159.1%; Concentration of FLNA-Binding Compound as Agonist 1 μM [2, 26]: 349.6% |
| O=C(c1ccc([N+](=O)[O-])cc1)N1CCC2(CC1)OCCN2S(=O)(=O)c1ccc([N+](=O)[O-])cc1 [Compound C0022] | 34.5 | 37.6 | 43.9 | – | – | – | – | – | – | – | – | – | % DAMGO (0.1 μM) [2, 21]: 113.5%; Concentration of FLNA-Binding Compound as Agonist 0.1 μM [2, 22]: 194.3%; Concentration of FLNA-Binding Compound as Agonist 1 μM + BFNA [2, 23]: 13.4%; % DAMGO + BFNA [2, 24]: 25.7%; % DAMGO (1 μM) [2, 25]: 123.2%; Concentration of FLNA-Binding Compound as Agonist 1 μM [2, 26]: 328.7% |
| CC(=O)c1ccc(S(=O)(=O)N2C(Cc3c[nH]cn3)C(=O)NC23CCNCC3)cc1 (stereo not drawn) [Compound C0119M] | 41.6 | 55.5 | 60 | – | – | – | 71.9 | 105.7 | 35.1 | 89.3 | 83.0 | 167.8 | – |
| CC1CCC(C(C)C)C(OCC(O)CN2CC(C)OC(C)C2)C1 (stereo not drawn) [Compound A0032-1] | – | – | – | 35.6 | 43.9 | 50 | – | – | – | – | – | – | MOR agonist activity ([35S]GTPγS binding), FLNA-Binding Compound as Agonist 0.1 μM ([2]; 0.1 μM compound): 187.4%; % DAMGO (0.1 μM) [2, 27]: 95.5%; MOR agonist activity ([35S]GTPγS binding), FLNA-Binding Compound as Agonist 1 μM ([2]; 1 μM compound): 324.5%; MOR agonist activity ([35S]GTPγS binding), FLNA-Binding Compound as Agonist 1 μM + BFNA [2]: 224.5%; % DAMGO + BFNA [2, 28]: 303.8%; % DAMGO (1 μM) [2, 29]: 117.6% |
| CC(=O)c1ccc(S(=O)(=O)N2CCOC23CCN(CC(=O)O)CC3)cc1 [Compound C0100M] | – | – | – | 52.2 | 58.2 | 64.5 | 103.6 | 173.6 | 195.6 | 411.8 | 110.6 | 245.9 | – |
| CC1CN(CC(O)COc2cccc(C(F)(F)F)c2)CC(C)O1 (stereo not drawn) [Compound A0051] | – | – | – | 45.9 | 45.4 | 52.1 | – | – | – | – | – | – | MOR agonist activity ([35S]GTPγS binding), FLNA-Binding Compound as Agonist 0.1 μM ([2]; 0.1 μM compound): 290.4%; % DAMGO (0.1 μM) [2, 27]: 148.0%; MOR agonist activity ([35S]GTPγS binding), FLNA-Binding Compound as Agonist 1 μM ([2]; 1 μM compound): 386.6%; MOR agonist activity ([35S]GTPγS binding), FLNA-Binding Compound as Agonist 1 μM + BFNA [2]: 211.6%; % DAMGO + BFNA [2, 28]: 286.3%; % DAMGO (1 μM) [2, 29]: 140.1% |
| O=[N+]([O-])c1ccc(S(=O)(=O)N2CCC3(CC2)NCCS3)cc1 [Compound C0044] | – | – | – | 37.3 | 43.9 | 50.6 | 102.8 | 173.7 | 59.1 | 356.0 | 128.0 | 280.1 | – |
| CC(=O)c1ccc(C(=O)N2CCC3(CC2)OCCN3S(=O)(=O)c2ccc(C(C)=O)cc2)cc1 [Compound C0052] | 28 | 35.6 | 40.8 | – | – | – | – | – | – | – | – | – | % DAMGO (0.1 μM) [2, 21]: 74.8%; Concentration of FLNA-Binding Compound as Agonist 0.1 μM [2, 22]: 108.4%; Concentration of FLNA-Binding Compound as Agonist 1 μM + BFNA [2, 23]: 42.7%; % DAMGO + BFNA [2, 24]: 97.0%; % DAMGO (1 μM) [2, 25]: 69.9%; Concentration of FLNA-Binding Compound as Agonist 1 μM [2, 26]: 162.8% |
| COc1ccc(S(=O)(=O)N2CCOC23CCN(C)CC3)cc1 [Compound C0088M] | 40.1 | 52.4 | 56.1 | – | – | – | 160.5 | 276.3 | 177.1 | 513.3 | 161.7 | 355.3 | – |
| COc1ccccc1CC(O)CC1c2c(cc3c(c2OC)OCO3)CC[N+]1(C)C (stereo not drawn) [Compound B0032] | 45.1 | 51.3 | 48.9 | – | – | – | – | – | – | – | – | – | % DAMGO (0.1 μM) [2, 6]: 115.0%; MOR agonist activity, percent [35S]GTPγS binding at the stated compound concentration [2, 7]: 221.1%; MOR agonist activity, percent [35S]GTPγS binding at the stated compound concentration [2, 8]: 15.6%; % DAMGO + BFNA [2, 9]: 35.5%; % DAMGO (1 μM) [2, 10]: 109.0%; MOR agonist activity, percent [35S]GTPγS binding at the stated compound concentration [2, 11]: 297.7% |
| CC(=O)c1ccc(S(=O)(=O)N2CCC3(CC2)NC(=O)C(Cc2cnc[nH]2)N3S(=O)(=O)c2ccc(C(C)=O)cc2)cc1 (stereo not drawn) [Compound C0084M] | 47.2 | 53.7 | 55.9 | – | – | – | – | – | – | – | – | – | % DAMGO (0.1 μM) [2, 21]: 97.3%; Concentration of FLNA-Binding Compound as Agonist 0.1 μM [2, 22]: 163.1%; Concentration of FLNA-Binding Compound as Agonist 1 μM + BFNA [2, 23]: 133.2%; % DAMGO + BFNA [2, 24]: 280.4%; % DAMGO (1 μM) [2, 25]: 114.9%; Concentration of FLNA-Binding Compound as Agonist 1 μM [2, 26]: 255.5% |
| CC(=O)c1ccc(S(=O)(=O)N2CC(CN(C)C)OC23CCNCC3)cc1 (stereo not drawn) [Compound C0118M] | 56.6 | 61.4 | 62.4 | – | – | – | 87.8 | 166.2 | 79.2 | 163.3 | 105.4 | 261.5 | – |
| O=[N+]([O-])c1ccc(S(=O)(=O)N2CCC3(CC2)NCCO3)cc1 [Compound C0040] | – | – | – | 38.4 | 46.3 | 55.9 | 93.1 | 145.8 | 90.4 | 277.3 | 133.2 | 308.3 | – |
| COc1ccc(NC(=O)N2CCC3(CC2)OCCN3S(=O)(=O)c2ccc(OC)cc2)cc1 [Compound C0041] | 38.3 | 47 | 51.2 | – | – | – | – | – | – | – | – | – | % DAMGO (0.1 μM) [2, 21]: 110.1%; Concentration of FLNA-Binding Compound as Agonist 0.1 μM [2, 22]: 186.1%; Concentration of FLNA-Binding Compound as Agonist 1 μM + BFNA [2, 23]: 95.5%; % DAMGO + BFNA [2, 24]: 575.3%; % DAMGO (1 μM) [2, 25]: 111.7%; Concentration of FLNA-Binding Compound as Agonist 1 μM [2, 26]: 244.4% |
